Assay results as given in patent US20220135567A1, “TYK2 PSEUDOKINASE LIGANDS” (Ventyx Biosciences, Inc., priority 2019, published 2022).

Test system: IFN-a/Jak1Tyk2
Assay: Co-stimulation assay in lysed whole blood: IFNa (JAK1/TYK2) stimulated STAT1 phosphorylation
Format: cell-based
Conditions: 20 min, lysed human whole blood, IFNa 100 ng/mL + GM-CSF 10 ng/mL, pSTAT1 by flow cytometry
Protocol: Dilute RBC lysis buffer to 1× in distilled water. Add 2 mL blood to 38 mL of 1×RBC-lysis buffer. Incubate for 15 mins at RT, in dark. Spin at 300 g, 5 mins, to collect the pellet. Re-lyse if necessary. Re-suspend pellet in 5 mL of cRPMI.
Aliquot 80 μL of lysed human blood in to wells of 96 deep-well plate. Add 10 μl of (10× conc.) of different concentrations of compounds to all wells except controls (unstained and unstimulated) and mix it with the help of 100 uL multichannel. Add 10 uL of RPMI media in controls. For dilution of compounds and dilution range please refer Appendix. Incubate on water bath or CO2 incubator for 1 hour at 37° C. Add 10 μl of (10× conc.) of cytokine mix (GM-CSF and IFNa) (final conc. 10 ng/mL of GM-CSF and 100 ng/mL of IFNa) to each well except unstimulated and unstained controls and incubate further for 20 minutes on water bath at 37° C.
Add 900 μL of prewarmed 1× Fix/Lyse solution (Appendix) and mix it properly using 1000 μl multichannel, incubate further on water bath at 37° C. for 10 minutes (which includes time of addition). Centrifuge at 800×g for 5 minutes at 40° C.; remove 900 uL of supernatant and add 900 μL of 1×PBS. Centrifuge at 800×g for 5 minutes at 40° C., remove 900 μL of supernatant. Wash one more time with 900 μL of PBS (optional) and resuspend pellets in 100 uL of PBS.
Disrupt the pellet by gentle tapping and resuspend in 1000 μL of BD Phosflow Perm Buffer III and incubate plate on ice for 30 minutes. Centrifuge plate at 800×g for 5 minutes at 40° C. Wash two more times with 1000 μL of BD Pharmingen Stain Buffer.
Disrupt the pellet by gentle tapping. Resuspend pellets in 100 uL of Stain Buffer and add 5 μL of pSTAT5_AF488 Ab and 5 uL of pSTAT1_PE in all wells except unstained control and mix properly using 200 μl multichannel, incubate overnight at […]. Add 900 μL of wash buffer and centrifuge at 1800 rpm for 3 minutes at […]. Wash one more time with 1000 μL of BD Pharmingen Stain Buffer. Finally resuspend the pellet in 300 uL of BD Pharmingen Stain Buffer. Transfer the cells to 96-well v-bottom plate and acquire the cells in Beckman Coulter CytExpert. Acquiring cells in Flow Cytometer: Keep the threshold value to 250 and cell concentration should not exceed 100-500 cells/μL. Acquire at least 5,000-10,000 cells.
Cytokine dilution: 1) GM-CSF Stock at 100 ug/mL. Prepare an intermediate dilution of 1 ug/mL by adding 2 uL of stock into 198 uL of cRPMI. Further dilute to 100 ng/mL by adding 100 uL of the intermediate stock to 900 uL of cRPMI. 2) IFNa Stock at 200 ug/mL. Dilute IFNa stock 1:200 by adding 5 uL of stock into the 1000 uL of 100 ng/mL GM-CSF working stock as above to give a combined working stock of 1000 ng/mL of IFNa and 100 ng/mL GM-CSF (10×). Keep it on ice until used.
Lyse/Fix buffer preparation: Dilute 5× Lyse/Fix buffer to 1× using MQ water and keep at 37° C. until used.
BD Phosflow perm buffer III: Keep on ice/fridge.

| Structure (SMILES) | IC50 [nM] |
| --- | --- |
| CNc1cc(Nc2cccn(-c3cccc(C)n3)c2=O)nc2c(C(=O)NC3CC(O)C3)cnn12 (stereo not drawn) [Compound 100, N-(3-hydroxycyclobutyl)-5-((6′-methyl-2-oxo-2H-[1,2′-bipyridin]-3-yl)amino)-7-(methylamino)pyrazolo[1,5-a]pyrimidine-3-carboxamide] | 1000 to 10000 |
| CNc1cc(Nc2c(Cl)ccc3c2OCO3)nc2c(C(=O)NCC(C)(C)CO)cnn12 [Compound 49, 5-((5-chlorobenzo[d][1,3]dioxol-4-yl)amino)-N-(3-hydroxy-2,2-dimethylpropyl)-7-(methylamino)pyrazolo[1,5-a]pyrimidine-3-carboxamide] | 1000 to 10000 |
| CNc1cc(Nc2cccn(-c3ccc(OC)nn3)c2=O)nc2c(C(=O)NCC(C)(C)O)cnn12 [Compound 103, N-(2-hydroxy-2-methylpropyl)-5-((1-(6-methoxypyridazin-3-yl)-2-oxo-1,2-dihydropyridin-3-yl)amino)-7-(methylamino)pyrazolo[1,5-a]pyrimidine-3-carboxamide] | 1000 to 10000 |
| CNc1cc(Nc2cccn(-c3ccc(OC)nn3)c2=O)nc2c(C(=O)NCC(F)(F)F)cnn12 [Compound 67, 5-((1-(6-methoxypyridazin-3-yl)-2-oxo-1,2-dihydropyridin-3-yl)amino)-7-(methylamino)-N-(2,2,2-trifluoroethyl)pyrazolo[1,5-a]pyrimidine-3-carboxamide] | 1000 to 10000 |
| CNc1cc(Nc2cccn(-c3cc(C)n(C)n3)c2=O)nc2c(C(=O)NC3CC3)cnn12 [Compound 32, N-cyclopropyl-5-((1-(1,5-dimethyl-1H-pyrazol-3-yl)-2-oxo-1,2-dihydropyridin-3-yl)amino)-7-(methylamino)pyrazolo[1,5-a]pyrimidine-3-carboxamide] | 100 to 1000 |

The next lines start with the values.

| IC50 [nM] | Structure (SMILES) |
| --- | --- |
| < 100 | CNc1cc(Nc2cccn(-c3ccccn3)c2=O)nc2c(C(=O)NC3CC3)cnn12 [Compound 33, N-cyclopropyl-7-(methylamino)-5-((2-oxo-2H-[1,2′-bipyridin]-3-yl)amino)pyrazolo[1,5-a]pyrimidine-3-carboxamide] |
| 100 to 1000 | CNc1cc(Nc2cccc3c2CCCO3)nc2c(C(=O)NCC(C)(C)CO)cnn12 [Compound 81, 5-(chroman-5-ylamino)-N-(3-hydroxy-2,2-dimethylpropyl)-7-(methylamino)pyrazolo[1,5-a]pyrimidine-3-carboxamide] |
| 100 to 1000 | CNc1cc(Nc2cccn(C)c2=O)nc2c(C(=O)NC3CC(C#N)C3)cnn12 (stereo not drawn) [Compound 87, N-(3-cyanocyclobutyl)-5-((1-methyl-2-oxo-1,2-dihydropyridin-3-yl)amino)-7-(methylamino)pyrazolo[1,5-a]pyrimidine-3-carboxamide] |
| 100 to 1000 | [2H]C([2H])([2H])n1cccc(Nc2cc(NC)n3ncc(C(=O)N[C@H]4C[C@H]4F)c3n2)c1=O [Compound 83, N-((1S,2R)-2-fluorocyclopropyl)-5-((1-(methyl-d3)-2-oxo-1,2-dihydropyridin-3-yl)amino)-7-(methylamino)pyrazolo[1,5-a]pyrimidine-3-carboxamide] |
| < 100 | CNc1cc(Nc2cc(Cl)cc3c2OCCO3)nc2c(C(=O)NCC(C)(C)CO)cnn12 [Compound 92, 5-((7-chloro-2,3-dihydrobenzo[b][1,4]dioxin-5-yl)amino)-N-(3-hydroxy-2,2-dimethylpropyl)-7-(methylamino)pyrazolo[1,5-a]pyrimidine-3-carboxamide] |
| < 100 | CNc1cc(Nc2cccc3c2OCCO3)nc2c(C(=O)NCC(C)(C)CO)cnn12 [Compound 25, 5-((2,3-dihydrobenzo[b][1,4]dioxin-5-yl)amino)-N-(3-hydroxy-2,2-dimethylpropyl)-7-(methylamino)pyrazolo[1,5-a]pyrimidine-3-carboxamide] |
| < 100 | CNc1cc(Nc2cccn(-c3ccccn3)c2=O)nc2c(C(=O)N[C@H]3C[C@H]3F)cnn12 [Compound 115, N-((1S,2R)-2-fluorocyclopropyl)-7-(methylamino)-5-((2-oxo-2H-[1,2′-bipyridin]-3-yl)amino)pyrazolo[1,5-a]pyrimidine-3-carboxamide] |
